Assay results published in patent US10047105B2, “Gyrase inhibitors” (Merck Sharp & Dohme Corp., priority 2009, dated 2018).
Values after ≈ are worked out from the molar mass of the structure shown.

Legend:
[1] = system: S. aureus ATCC 13709; experiment: MIC, antibacterial potency, S. aureus; type: cell-based; details: S. aureus
[2] = system: S. pneumoniae ATCC 51916; experiment: MIC, S. pneumoniae; type: cell-based; details: S. pneumoniae

| SMILES | MIC, SA [1] | MIC Spn52 [2] |
| --- | --- | --- |
| CCOc1nc(Nc2cnc3nccnc3c2)nc2[nH]c(CC)c(Br)c12.O=C(O)C(F)(F)F [700,572] | 4 mg/L | > 8 mg/L |
| CCc1[nH]c2nc(Nc3cnc4nccnc4c3)nc(N3CC(O)C3)c2c1Cl.O=C(O)C(F)(F)F [700,573] | > 64 mg/L | > 64 mg/L |
| CCc1[nH]c2nc(Sc3cncnc3)nc(N3CC(N)C3)c2c1Cl [700,574] | 4 mg/L (≈ 11.1 µM) | 16 mg/L (≈ 44.2 µM) |
| CCc1[nH]c2nc(Sc3ccc4c(NCC(C)O)ncnc4c3)nc(N3CCC(N)C3)c2c1Cl (centres unmarked) [700,575] | 8 mg/L (≈ 16 µM) | 16 mg/L (≈ 32.1 µM) |
| CCc1[nH]c2nc(Sc3ccc4c(NC)ncnc4c3)nc(N3CCC(N)C3)c2c1Cl (centres unmarked) [700,576] | 8 mg/L (≈ 17.6 µM) | 16 mg/L (≈ 35.2 µM) |
| O=C(O)C(F)(F)F.OCCc1[nH]c2nc(Oc3cccnc3)nc(Oc3cncnc3)c2c1Cl [700,577] | > 64 mg/L | > 64 mg/L |
| CCc1[nH]c2nc(Oc3cncc(OC)c3)nc(Oc3cncc(OC)c3)c2c1Cl.O=C(O)C(F)(F)F [700,578] | ≤ 0.5 mg/L | 1 mg/L |
| C=CCc1nc(Cc2cccnc2)nc2[nH]c(CC)c(Cl)c12 [700,584] | 8 mg/L (≈ 25.6 µM) | 32 mg/L (≈ 102 µM) |
| CCc1[nH]c2nc(Cc3cccnc3)nc(N3CCC(CN)CC3)c2c1Cl [700,585] | > 64 mg/L | > 64 mg/L |
| CCc1[nH]c2nc(Oc3ccc(OC)nc3)nc(Oc3ccc(OC)nc3)c2c1Br.O=C(O)C(F)(F)F [700,591] | 2 mg/L | > 64 mg/L |
| CCc1[nH]c2nc(Oc3ccc(OC)nc3)nc(Oc3ccc(OC)nc3)c2c1Cl.O=C(O)C(F)(F)F [700,592] | > 64 mg/L | 4 mg/L |
| CCc1[nH]c2nc(Oc3cccnc3)nc(Oc3cccnc3)c2c1Br.O=C(O)C(F)(F)F [700,598] | 1 mg/L | 2 mg/L |
| CCc1[nH]c2nc(Nc3cnc4c(c3)nnn4C)nc(OC)c2c1Br.O=C(O)C(F)(F)F [700,599] | ≤ 0.5 mg/L | 2 mg/L |
| CCOc1nc(Nc2cnc3c(c2)nnn3C)nc2[nH]c(CC)c(Br)c12.O=C(O)C(F)(F)F [700,600] | > 8 mg/L | > 8 mg/L |
| CCc1[nH]c2nc(Sc3cnc4nccnc4c3)nc(N3CC(N(C)C(=O)OC(C)(C)C)C3)c2c1Cl.O=C(O)C(F)(F)F [700,601] | ≤ 0.5 mg/L | 2 mg/L |
| CCc1[nH]c2nc(Sc3cnc4nccnc4c3)nc(N3CC(CN(C)C)C3)c2c1Cl.O=C(O)C(F)(F)F.O=C(O)C(F)(F)F [700,602] | 4 mg/L | 4 mg/L |
| CCc1[nH]c2nc(Sc3cnc4nccnc4c3)nc(N3CC(N(C)C)C3)c2c1Cl.O=C(O)C(F)(F)F.O=C(O)C(F)(F)F [700,603] | 4 mg/L | 8 mg/L |

Other lines, results leading:

| MIC, SA [1] | MIC Spn52 [2] | SMILES |
| --- | --- | --- |
| > 64 mg/L | > 64 mg/L | CCc1[nH]c2nc(Cc3cccnc3)nc(N3CCC(C(C)N4CCOCC4)CC3)c2c1Cl (centres unmarked) [700,586] |
| 64 mg/L (≈ 150 µM) | > 64 mg/L | CCc1[nH]c2nc(Cc3cccnc3)nc(N3CCC(N4CCOCC4)C3)c2c1Cl (centres unmarked) [700,587] |
| 8 mg/L (≈ 18.1 µM) | 8 mg/L (≈ 18.1 µM) | CCc1[nH]c2nc(Sc3cnc4nccnc4c3)nc(N3CCC[C@@H](N)C3)c2c1Cl [700,588] |
| 2 mg/L (≈ 4.4 µM) | 8 mg/L (≈ 17.6 µM) | CCc1[nH]c2nc(Sc3cnc(N4CCC4)c(C#N)c3)nc(N3CCC(N)C3)c2c1Cl (centres unmarked) [700,589] |
| 4 mg/L (≈ 8.49 µM) | 16 mg/L (≈ 34 µM) | CCc1[nH]c2nc(Sc3cnc(N4CC(O)C4)c(C#N)c3)nc(N3CCC(N)C3)c2c1Cl (centres unmarked) [700,590] |
| 8 mg/L (≈ 17.6 µM) | 8 mg/L (≈ 17.6 µM) | CCc1[nH]c2nc(Sc3cnc4nccnc4c3)nc(N3CC[C@@H](C)[C@@H](N)C3)c2c1Cl [700,595] |
| 32 mg/L (≈ 58 µM) | 32 mg/L (≈ 58 µM) | CCc1[nH]c2nc(Sc3ccc(S(=O)(=O)NCCN4CCOCC4)cc3)nc(N3CC(N)C3)c2c1Cl [700,596] |
| 16 mg/L (≈ 32.3 µM) | 16 mg/L (≈ 32.3 µM) | CCc1[nH]c2nc(Sc3ccc4c(N5CC(N)C5)ncnc4c3)nc(N3CCC(N)C3)c2c1Cl (centres unmarked) [700,597] |
